Experimental data taken from EP4775209A1 (Ascentawits Pharmaceuticals, Ltd., priority 2023, dated 2025).
Like-named read-outs stand apart in the source and are kept apart here.

Experiments:
[1] = Phase I solid tumor clinical trial of AST-3424 in China (CTR20191399): safety and tolerability; type: in vivo, human; details: Day 1 and Day 8 of every 21-day treatment cycle; Chinese subjects
Procedure: The treatment cycle was 21 days, with administration on Day 1 and Day 8. Dose escalation was conducted across five dose levels: 1.0, 2.0, 4.0, 6.0, and 8.0 mg/m^2. After discussion by the Safety Review Committee (SRC), the MTD and RP2D when administered on Day 1 and Day 8 of every 21-day treatment cycle were confirmed as 6.0 mg/m^2 (a total dose of 12 mg/m^2 per cycle). The safety and tolerability were slightly better in the U.S. subjects than in the Chinese subjects (with a marginally higher MTD/RP2D under the same dosing regimen than those in the Chinese population). The safety profile trends were consistent (most adverse events were mild in severity; the most common adverse events included anemia, decreased platelet count, fatigue, and vomiting). Other safety, PK and efficacy results were generally similar to those in the clinical trials of OBI-3424.

[2] = Phase I clinical trial of AST-3424 in China: blood pharmacokinetics compared with US data; type: in vivo, human; details: human, Chinese and American patients, printed as 'almost lower than', read-out: concentrations after 8 hours
[3] = tested on: human liver cancer (HepG2-GFP) orthotopic CDX model; assay: Human liver cancer orthotopic CDX efficacy model (QW×2 regimen); type: in vivo, nude mice; details: 1.25, 2.5, 5 mg/kg, QW×2, drug free one week, QW×2, I.V.; significant dose-effect relationship
Excerpt: The data from this experiment correspond to the data of the HepG2 model in Example 3-1 of the aforementioned Patent Application 2 (see Table 5 and Figures 4A, 4B of this application).

[4] = tested on: HuPrime® liver cancer LI6664 subcutaneous xenograft PDX model; assay: Liver cancer LI6664 subcutaneous xenograft PDX efficacy model; type: in vivo, BALB/c nude mice; details: all AST-3424 treatment groups (0.3, 1, 1.25 mg/kg)
[5] = tested on: HuPrime® lung cancer LU5173 subcutaneous xenograft model
Excerpt: (§1) For the experimental procedures and relevant evaluation indicators of the aforementioned solid tumor animal efficacy models, please refer to Examples 7, 8, and 9 in Patent Application 1, namely PCT/US2016/062114, with Publication No. WO2017/087428 (corresponding to Chinese Application CN201680044608.1, with Publication No. CN108290911B), Examples 3 and 4 in Patent Application 2, namely PCT/CN2021/078115, with Publication No. WO2022178821, and Research Literature 1. The aforementioned non-clinical animal efficacy models (PDX) mentioned in the present application are all similar to those in the aforementioned literatures, and the specific operation procedures thereof are not described herein again.
The LU5173 is a HuPrime® xenograft model established from a lung cancer (small cell lung carcinoma) tumor of a patient.
Efficacy was evaluated based on the relative tumor growth inhibition (TGI, %), and safety was evaluated based on animal body weight changes and mortality.

[6] = tested on: HuPrime® lung cancer LU5161 subcutaneous xenograft model
Excerpt: as §1
LU5161 is a HuPrime® xenograft model established from a lung tumor (small cell lung cancer) of a patient.
Efficacy was evaluated based on the relative tumor growth inhibition rate (TGI, %), and safety was evaluated based on animal body weight changes and mortality.

[7] = tested on: HuPrime® pancreatic cancer PA1280 subcutaneous xenograft model; assay: Pancreatic cancer PA1280 subcutaneous xenograft efficacy model; type: in vivo, BALB/c nude mice
Procedure: The drug was administered via tail vein injection once weekly for a total of three weeks, followed by one week of observation.

[8] = GLP repeated-administration toxicity study (D1+D8/21 Days) in monkeys; type: in vivo, cynomolgus monkeys
Procedure: In a GLP repeated-administration toxicity study in cynomolgus monkeys, AS-3424 was intravenously infused to cynomolgus monkeys at doses of 0, 0.1, 0.3, and 0.6 mg/kg over 30 minutes on Days 1, 8, 22, and 29. […] Ultimately, the highest non-severe toxic dose (HNSTD) in monkeys was determined to be 0.6 mg/kg.

[9] = GLP repeated-administration toxicity study (QD×5/21 Days) in monkeys; type: in vivo, cynomolgus monkeys; details: 5 cycles
Procedure: In a GLP repeated-administration toxicity study in cynomolgus monkeys, AS-3424 was intravenously infused to cynomolgus monkeys at doses of 0, 0.1, 0.2, or 0.4/0.3 mg/kg over 30 minutes on Days 1-5, Days 22-26, Days 43-47, Days 64-68, and Days 85-89.
During the trials, a decrease in #EOS (absolute eosinophil count), %EOS (% eosinophils), #RET (absolute reticulocyte count), and %RETIC (% reticulocytes) was primarily observed in the ≥0.1 mg/kg dose groups; a decrease in #NEUT, #LYMPH (lymphocyte absolute count), and %LYMPH (% lymphocyte) was also seen in the ≥ 0.2 mg/kg dose groups; and a decrease in WBC (white blood cell), HGB (hemoglobin), and HCT (hematocrit) was also seen in the 0.4/0.3 mg/kg dose group. Among them, the reduction in eosinophils was correlated with the reduction in the percentage of eosinophils in the bone marrow smears at the end of the administration period, and the decrease in lymphocytes was correlated with the reduction of lymphocytes in the thymic cortex under microscopic examination, which were considered to be secondary stress responses. All the above hematological changes were recoverable during the recovery period.

solid tumors = details: 21 patients of 39; cited from earlier work
[10] = cited from earlier work
[11] = 1 mg/kg QD×5, 2 cycles, no animal deaths
[12] = Regimen A, 12 mg/m^2 dose level

SMILES: C[C@H](OP(=O)(N1CC1)N1CC1)c1ccc([N+](=O)[O-])c(Oc2cccc(C(=O)N(C)C)c2)c1 [AST-3424]
- MTD [1]: 6.0 mg/m^2
- RP2D [1]: 6.0 mg/m^2
- concentration at 8 h [2]: < 1 ng/mL
- effect on the orthotopic model of human liver cancer in mice [3]: strong inhibitory effect
- tolerability (body weight changes and mortality) [4]: well tolerated
- tolerability (body weight changes and mortality) [5, 11]: well tolerated
- TGI (%) ([5]; day 32 after first administration, AST-3424 1 mg/kg QD×5, 16 days off, QD×5 (P < 0.001), ifosfamide 6.0 mg/kg QD×5/week for 2 weeks (p > 0.05)): 78.56%
- mean tumor volume ([5]; day 32 after first administration, AST-3424 1 mg/kg QD×5, 16 days off, QD×5, ifosfamide 6.0 mg/kg QD×5/week for 2 weeks, vehicle 2276.68): 503.91 mm^3
- tumor clearance ([6]; 1 mg/kg QD×5, 2 cycles, 6 mice per group): the tumor in one mouse was cleared
- tolerability (body weight changes and mortality) [6, 11]: well tolerated
- TGI (%) ([6]; day 29 after first administration, AST-3424 1 mg/kg QD×5, 16 days off, QD×5 (P < 0.001), ifosfamide 60 mg/kg QD×5/week for 2 weeks (p > 0.05)): 95.62%
- mean tumor volume ([6]; day 29 after first administration, AST-3424 1 mg/kg QD×5, 16 days off, QD×5, ifosfamide 60 mg/kg QD×5/week for 2 weeks, negative control 2238.97): 94.42 mm^3
- tolerability (body weight changes and mortality) ([7]; 2.5 mg/kg once weekly for three weeks, no animal deaths, no apparent drug toxicity): well tolerated
- mean tumor volume ([7]; 2.5 mg/kg tail vein once weekly for three weeks, Day 27, vehicle 475.07): 190.34 mm^3
- most prominent toxic reaction ([8]; 0.1, 0.3, 0.6 mg/kg on Days 1, 8, 22, 29, intestinal necrosis/hyperplasia in pathology): diarrhea and vomiting
- highest non-severe toxic dose (HNSTD) ([8]; 30-minute i.v. infusion on Days 1, 8, 22, 29): 0.6 mg/kg
- toxic target organs ([9]; 0.1, 0.2, 0.4/0.3 mg/kg QD×5 per 21 days): duodenum, jejunum, colon, and cecum
- HNSTD ([9]; 30-minute i.v. infusion QD×5 per 21 days): 0.3 mg/kg
- confirmed best response stable disease (solid tumors): 54%
- probability of grade ≥3 TEAEs ([10]; 12 mg/m^2 on Day 1 and Day 8 of 21-day cycle (all 6 patients)): 100%
- probability of grade ≥3 TEAEs ([10]; 12 mg/m^2 only on Day 1 of 21-day cycle (2 out of 6 patients)): 33.3%
- recommended Phase II dose (RP2D) ([10]; 21 days per cycle, administration on Day 1 (once every 3 weeks)): 12 mg/m^2
- dose-limiting toxicity: anemia Grade 3-4 [10, 12]: 5 out of 6
- dose-limiting toxicity: thrombocytopenia Grade 3-4 [10, 12]: 5 out of 6
- maximum tolerated dose (MTD) ([10]; Regimen A: i.v., 21 days per cycle, administration on Day 1 and Day 8): 8 mg/m^2
- nadir of the platelet count ([10]; Regimen A): Day 15 or Day 22
- patients with Grade 3 or higher anemia ([10]; Regimen B, 14 mg/m^2, among 6 patients treated): 3 patients
- MTD ([10]; Regimen B: i.v., 21 days per cycle, administration only on Day 1, highest tested dose 14 mg/m^2): not reached
- patients who experienced treatment-emergent adverse events (TRAEs) ([10]; all 39 patients (32/39)): 82%
- Grade ≥3 TRAEs ([10]; all 39 patients): 49%
- TRAE anemia ([10]; all 39 patients): 64%
- TRAE fatigue ([10]; all 39 patients): 21%
- TRAE nausea ([10]; all 39 patients): 26%
- TRAE thrombocytopenia ([10]; all 39 patients): 51%
- patients who experienced serious TRAEs ([10]; all 39 patients): 3 patients
